Laboratory results from US11186873B2, “Combination method for treating cancer by targeting immunoglobulin superfamily member 1 (IGSF1) and mesenchymal-epithelial transition factor (MET)” (WELLMARKER BIO CO., LTD., priority 2014, dated 2021).

Assays:
[1] = tested on: human gastric cancer cell line SNU638; test: Cell growth after miRNA transfection, trypan blue exclusion; format: cell-based; settings: 300 nM, compared with the control group
Procedure: Human miRNA-34a (SEQ ID NO: 1; […]) or miRNA-34c (SEQ ID NO: 2; […]) was purchased from Thermo Fisher Scientific. 4×10^5 HGF-independent human gastric cancer SNU638 cells were seeded and transfected with 300 nM of miRNA-34a or miRNA-34c, and then the number of cells was counted using trypan blue exclusion method for 0, 1, 2 and 3 days.
4×10^5 HGF-independent human gastric cancer SNU638 cells or 3×10^5 MKN45 cells were transfected with 300 nM of miRNA-34a (SEQ ID NO: 1) or miRNA-34c (SEQ ID NO: 2), and then the number of cells was counted using trypan blue exclusion method for 0, 1, 2 and 3 days.

IGSF1 [2] = test: IGSF1 expression after miR-34a/miR-34c or antagomir transfection, gastric cancer cells; format: cell-based, human
Source text: (§1) Moreover, as shown in the lower panel of FIG. 6B, as a result of analyzing the expression of MET and IGSF1 after transfecting miR-34a or miR-34c into human gastric cancer cell lines MKN45 and SNU638, it was observed that the expression of IGSF1 as a marker for the induction of HGF-independent MET phosphorylation and the expression of c-MET were inhibited by miR-34a or miR-34c.

gastric cancer cell line = test: Cell invasion after miRNA or antagomir transfection, gastric cancer cells; format: cell-based, human; settings: middle panel of FIG. 6D
Procedure: […] Plate inserts (BD Biosciences) of […] pore size were placed in a 24-well plate, and each 100 μl of matrigel (BD Biosciences) was seeded on each at a concentration of 200 μg/ml and incubated in a CO2 incubator for 30 minutes. […] 400 μl of growth media (RPMI1640+10% FBS) were seeded on the bottom plate and cultured in a CO2 incubator for 24 hours. After 24 hours, the insert plate was washed with PBS, and the remaining cells were wiped with a cotton swab and fixed in 10% formalin for 20 minutes. After washing with purified water, the cells were stained with 0.01% crystal violet solution for 20 minutes and washed with warm water, and then the number of migrated cells was counted. In the case of the migration assay, the same procedure as above was carried out without coating the insert plate. The number of cells migrated through the insert plate in the control and the gastric cancer and lung cancer cell lines transfected with MET or IGSF1 siRNA was counted and verified.

IGSF1 [3] = test: IGSF1 expression after miRNA transfection, lung cancer cells; format: cell-based, human; settings: lung cancer cell lines HCC827 and H1944
MMP9 = MMP9 expression after miRNA transfection; format: cell-based, human; settings: SNU638; lower panel of FIG. 6D
Source text: Furthermore, as shown in the lower panel of FIG. 6D, the transfection of gastric cancer cell line SNU638 with mir-34a or mir-34c inhibited the migration of cells and decreased the expression of MMP9.

[4] = tested on: gastric cancer cell lines SNU638 and MKN45; test: Cell migration after miRNA or antagomir transfection, gastric cancer cells; format: cell-based, human; settings: for migration of cells: SNU638, lower panel of FIG. 6D; for cell migration: SNU638 and MKN45, upper panel of FIG. 6D
[5] = tested on: relevant signaling pathway; test: Expression of the relevant signaling pathway after miRNA transfection; format: cell-based; settings: human gastric cancer cell line; lower panel of FIG. 6C
pMET = pMET expression after miRNA/antagomir transfection, lung cancer cells; format: cell-based, human; settings: lung cancer cell lines HCC827 and H1944
MET [6] = test: MET expression after miR-34a/miR-34c or antagomir transfection, gastric cancer cells; format: cell-based, human; settings: for expression of c-MET: MKN45 and SNU638, lower panel of FIG. 6B; for expression of MET: cell line SNU638, real-time PCR, upper panel of FIG. 6B
Source text: as §1

MET [7] = test: Luciferase 3'UTR reporter assay in human 293 cell line, MET; format: cell-based; settings: wild-type vs mutated 3'UTR luciferase plasmids
IGSF1 [8] = test: Luciferase 3'UTR reporter assay in human 293 cell line, IGSF1; format: cell-based; settings: wild-type vs mutated 3'UTR luciferase plasmids
[9] = tested on: human lung cancer cell lines HCC827 and HCC194; test: Cell growth (cell counting) after shRNA, lung cancer cells; format: cell-based; settings: number of cells at 24 hours and 48 hours, shRNA method
Source text: The present inventors inhibited the expression of IGSF1 or the expression of MET by the shRNA method in human lung cancer cell lines HCC827 and HCC194 and then determined the inhibition of cell growth.

IGSF1 [10] = test: Real-time PCR of IGSF1 expression after shRNA inhibition of MET; format: cell-based, human; settings: RNA level, SNU638 and MKN45, inhibition of MET by shRNA method
Source text: (§2) The present inventors inhibited the expression of IGSF1 or MET by the shRNA method in human gastric cancer cell lines SNU638 and MKN45 and then determined the changes in expression of each gene by real-time PCR.

[11] = tested on: human gastric cancer cell lines SNU638 and MKN45; test: Colony forming assay after inhibition of IGSF1 or MET; format: cell-based
Procedure: Moreover, the expression of IGSF1 or MET in human gastric cancer cell lines SNU638 and MKN45 was inhibited, and then the degree of the inhibition of cell growth was determined by colony forming assay.

IGSF1 [12] = test: Western blot of IGSF1 expression after MET shRNA; format: cell-based, human; settings: MET shRNA concentration-dependent manner, FIG. 2E
Procedure: (§3) To perform Western blot analysis, proteins isolated from the respective cells were separated by SDS-PAGE and transferred to membranes (PolyScreen membranes; New England Nuclear, Boston, Mass., USA). The proteins were incubated with various antibodies (anti-phospho MET, E-cadherin (Cell signaling Technology, Beverly, Mass., USA), anti-MET, anti-r-tubulin (Santa Cruz Biotechnology, Santa Cruz, Calif., USA), anti-IGSF1 (Abnova, Jhouzih, Taipei, Taiwan)) at 4° C. for 12 hours and then washed with 1× TBS-T buffer three times for 10 minutes. The proteins were incubated with appropriate anti-rabbit-HRP or anti-mouse-HRP secondary antibody at room temperature for 2 hours and washed with 1× TBS-T buffer three times for 10 minutes, and then the expression of the proteins was detected using ECL solution (GE Healthcare Bio-Sciences Corp.). […]
(§4) To analyze the changes in MET phosphorylation by inhibition of the expression of IGSF1 as a marker for the induction of HGF-independent MET phosphorylation in human gastric cancer cell line (AGS, MKN45, SNU638) and lung cancer cell line (HCC827), the present inventors inhibited the expression of IGSF1 or MET by the siRNA method and then determined the changes in phosphorylation of the MET protein by western blot analysis.

[13] = tested on: human gastric cancer cell lines SNU638 and MKN45; test: Cell growth (cell counting) after shRNA, gastric cancer cells; format: cell-based; settings: number of cells counted for 3 days, shRNA method
Source text: The present inventors inhibited the expression of IGSF1 or MET by the shRNA method in human gastric cancer cell lines SNU638 and MKN45 and then determined the inhibition of cell growth.

cleaved caspase 3 = test: Expression of cleaved caspase 3 after MET inhibitor treatment; format: cell-based, human; settings: treatment at each concentration; SNU638 and MKN45
[14] = tested on: gastric cancer cell lines SNU638 and MKN45; test: Apoptosis by MET inhibitor, trypan blue exclusion, gastric cancer cells; format: cell-based, human
[15] = tested on: human gastric cancer cell lines SNU638 and MKN45; test: Invasion chamber assay after siRNA, gastric cancer cells; format: cell-based; settings: siRNA method
Procedure: (§5) HGF-independent human gastric cancer cell lines MKN45 and SNU638 and lung cancer cell line HCC827 were transfected with IGSF1 siRNA or MET siRNA for 48 hours. Plate inserts (BD Biosciences) of […] pore size were placed in a 24-well plate, and each 100 μl of matrigel (BD Biosciences) was seeded on each at a concentration of 200 μg/ml and incubated in a CO2 incubator for 30 minutes. 2.5×10^4 cells transfected with MET or IGSF1 siRNA were placed in the insert plate in a total volume of 100 μl in serum-free media. 400 μl of growth media (RPMI1640+10% FBS) were seeded on the bottom plate and cultured in a CO2 incubator for 24 hours. After 24 hours, the insert plate was washed with PBS, and the remaining cells were wiped with a cotton swab and fixed in 10% formalin for 20 minutes. After washing with purified water, the cells were stained with 0.01% crystal violet solution for 20 minutes and washed with warm water, and then the number of migrated cells was counted. […] The number of cells migrated through the insert plate in the control and the gastric cancer and lung cancer cell lines transfected with MET or IGSF1 siRNA was counted and verified.
(§6) The present inventors inhibited the expression of IGSF1 by the siRNA method in human gastric cancer cell lines SNU638 and MKN45 and then analyzed the degree of the inhibition of invasion and migration by invasion chamber assay and wound healing assay.

[16] = tested on: human gastric cancer cell lines SNU638 and MKN45; test: Wound healing / migration assay after siRNA, gastric cancer cells; format: cell-based; settings: siRNA method
Procedure: as §5, §6

MET [17] = test: Real-time PCR of MET expression after shRNA inhibition of IGSF1; format: cell-based, human; settings: RNA level, SNU638 and MKN45, inhibition of IGSF1 by shRNA method
Source text: as §2

phosphorylation of MET = test: Western blot of MET phosphorylation after inhibiting IGSF1 by siRNA/shRNA; format: cell-based, human; settings: AGS, MKN45, SNU638 and HCC827, concentration-dependent manner, FIG. 2E
Procedure: as §3, §4

[18] = MKN45 and SNU638, lower panel of FIG. 6B
[19] = cell line SNU638, real-time PCR, upper panel of FIG. 6B

| Compound | growth of cancer cells [1] | expression of IGSF1 (IGSF1 [2]; [18]) | expression of IGSF1 (IGSF1 [2]; [19]) | inhibition of the invasion of cells (gastric cancer cell line) | expression of IGSF1 (IGSF1 [3]) | expression of MMP9 (MMP9) | migration of cells [4] | cell migration [4] | expression of the relevant signaling pathway [5] | expression of pMET (pMET) | expression of c-MET (MET [6]) | expression of MET (MET [6]) | luciferase activity of MET (MET [7]) | luciferase activity of IGSF1 (IGSF1 [8]) | cell growth [9] | number of colonies [11] | cell growth [13] | also measured |
| --- | --- | --- | --- | --- | --- | --- | --- | --- | --- | --- | --- | --- | --- | --- | --- | --- | --- | --- |
| miR-34c: Human miRNA-34c, SEQ ID NO: 2, AGGCAGUGUAGUUAGCUGAUUGC, purchased from Thermo Fisher Scientific (listed as RNA, chemistry not given here) | significantly inhibited | inhibited | decreased | about 50% | decreased | decreased | inhibited | inhibited | decreased | decreased | inhibited | decreased | inhibited only in the wild type | inhibited only in the wild type |  |  |  |  |
| MET shRNA: shRNA against MET, SEQ ID NO: 7, 5′-GCCAGCCUGAAUGAUGACAUCUCUGUCAUCAUUCAGGCUGGCUU-3′ (siRNA; shRNA hairpin, further chemistry not given here) |  |  |  |  |  |  |  |  |  |  |  |  |  |  | inhibited | decreased | inhibited | expression of IGSF1 (IGSF1 [10]): decreased; expression of IGSF1 (IGSF1 [12]): decreased |
| Cc1[nH]c(/C=C2\C(=O)Nc3ccc(S(=O)(=O)Cc4c(Cl)cccc4Cl)cc32)c(C)c1C(=O)N1CCC[C@@H]1CN1CCCC1 [PHA665752] |  |  |  |  |  |  |  |  |  |  |  |  |  |  |  |  |  | expression of cleaved caspase 3 (cleaved caspase 3): increased; induction of apoptosis ([14]; trypan blue exclusion, treatment at each concentration): induction of apoptosis; response to the MET inhibitor ([14]; with inhibition of the expression of IGSF1): increased |
| MET siRNA: siRNA against MET, SEQ ID NO: 5, 5′-AAAGATAAACCTCTCATAATG-3′ (AAAGAUAAACCUCUCAUAAUG; listed as RNA, chemistry not given here) |  |  |  |  |  |  |  |  |  |  |  |  |  |  |  |  |  | invasion [15]: inhibited; migration [16]: inhibited |
| miR-34a: Human miRNA-34a, SEQ ID NO: 1, UGGCAGUGUCUUAGCUGGUUGU, purchased from Thermo Fisher Scientific (listed as RNA, chemistry not given here) | significantly inhibited | inhibited | decreased | about 50% | decreased | decreased | inhibited | inhibited | decreased | decreased | inhibited | decreased | inhibited only in the wild type | inhibited only in the wild type |  |  |  |  |
| IGSF1 shRNA: shRNA against IGSF1, SEQ ID NO: 6, 5′-CAAAGAUGGAAGUGAAAUA UCUCUAUUUCACUUCCAUCUUUGUU-3′ (CAAAGAUGGAAGUGAAAUAUCUCUAUUUCACUUCCAUCUUUGUU; siRNA; shRNA hairpin, further chemistry not given here) |  |  |  |  |  |  |  |  |  |  |  |  |  |  | inhibited | decreased | inhibited | expression of MET (MET [17]): decreased; phosphorylation of MET (phosphorylation of MET): decreased |
